Reference: US20040234981A1, “Method of determining dna base sequence” (priority 2001, published 2004)
Values joined by “and” are separate entries in the source; they are usually repeats but may differ in a detail not shown here. Equal values may be shown once.

B1: T7 RNA polymerase F644Y/Δ3: T7 RNA polymerase F644Y with Δ3 deficiency (DEL 178-180) (protein, UniProt P00573 1-883, looked up, variant F644Y del178-180)
T7 RNA polymerase: MNTINIAKNDFSDIELAAIPFNTLADHYGERLAREQLALEHESYEMGEARFRKMFERQLKAGEVADNAAAKPLITTLLPKMIARINDWFEEVKAKRGKRPTAFQFLQEIKPEAVAYITIKTTLACLTSADNTTVQAVASAIGRAIEDEARFGRIRDLEAKHFKKNVEEQLNKRVGHVAFMQVVEADMLSKGLLGGEAWSSWHKEDSIHVGVRCIEMLIESTGMVSLHRQNAGVVGQDSETIELAPEYAEAIATRAGALAGISPMFQPCVVPPKPWTGITGGGYWANGRRPLALVRTHSKKALMRYEDVYMPEVYKAINIAQNTAWKINKKVLAVANVITKWKHCPVEDIPAIEREELPMKPEDIDMNPEALTAWKRAAAAVYRKDKARKSRRISLEFMLEQANKFANHKAIWFPYNMDWRGRVYAVSMFNPQGNDMTKGLLTLAKGKPIGKEGYYWLKIHGANCAGVDKVPFPERIKFIEENHENIMACAKSPLENTWWAEQDSPFCFLAFCFEYAGVQHHGLSYNCSLPLAFDGSCSGIQHFSAMLRDEVGGRAVNLLPSETVQDIYGIVAKKVNEILQADAINGTDNEVVTVTDENTGEISEKVKLGTKALAGQWLAYGVTRSVTKRSVMTLAYGSKEYGFRQQVLEDTIQPAIDSGKGLMFTQPNQAAGYMAKLIWESVSVTVVAAVEAMNWLKSAAKLLAAEVKDKKTGEILRKRCAVHWVTPDGFPVWQEYKKPIQTRLNLMFLGQFRLQPTINTNKDSEIDAHKQESGIAPNFVHSQDGSHLRKTVVWAHEKYGIESFALIHDSFGTIPADAANLFKAVRETMVDTYESCDVLADFYDQFADQLHESQLDKMPALPAKGNLNLRDILESDFAFA
B2: T7 RNA polymerase F644Y/Δ2: T7 RNA polymerase F644Y deficient in amino acids 172 and 173 and 178 through 180; plasmid pT7RF644Y/Δ2 (protein, UniProt P00573 1-883, looked up, variant F644Y del172-173 del178-180)
T7 RNA polymerase: MNTINIAKNDFSDIELAAIPFNTLADHYGERLAREQLALEHESYEMGEARFRKMFERQLKAGEVADNAAAKPLITTLLPKMIARINDWFEEVKAKRGKRPTAFQFLQEIKPEAVAYITIKTTLACLTSADNTTVQAVASAIGRAIEDEARFGRIRDLEAKHFKKNVEEQLNVGHVAFMQVVEADMLSKGLLGGEAWSSWHKEDSIHVGVRCIEMLIESTGMVSLHRQNAGVVGQDSETIELAPEYAEAIATRAGALAGISPMFQPCVVPPKPWTGITGGGYWANGRRPLALVRTHSKKALMRYEDVYMPEVYKAINIAQNTAWKINKKVLAVANVITKWKHCPVEDIPAIEREELPMKPEDIDMNPEALTAWKRAAAAVYRKDKARKSRRISLEFMLEQANKFANHKAIWFPYNMDWRGRVYAVSMFNPQGNDMTKGLLTLAKGKPIGKEGYYWLKIHGANCAGVDKVPFPERIKFIEENHENIMACAKSPLENTWWAEQDSPFCFLAFCFEYAGVQHHGLSYNCSLPLAFDGSCSGIQHFSAMLRDEVGGRAVNLLPSETVQDIYGIVAKKVNEILQADAINGTDNEVVTVTDENTGEISEKVKLGTKALAGQWLAYGVTRSVTKRSVMTLAYGSKEYGFRQQVLEDTIQPAIDSGKGLMFTQPNQAAGYMAKLIWESVSVTVVAAVEAMNWLKSAAKLLAAEVKDKKTGEILRKRCAVHWVTPDGFPVWQEYKKPIQTRLNLMFLGQFRLQPTINTNKDSEIDAHKQESGIAPNFVHSQDGSHLRKTVVWAHEKYGIESFALIHDSFGTIPADAANLFKAVRETMVDTYESCDVLADFYDQFADQLHESQLDKMPALPAKGNLNLRDILESDFAFA

Experiments:
Format in all cases: biochemical
3′-dATP [1] = experiment: Test (2): 3′-dATP added during in vitro transcription with Biotin-labeled CTP, chemoluminescent signal detection; details: 3′-dATP concentration 0.00125 mM, wild form taken as 1, average of three runs
Method: (§1) The ability to incorporate 3′-dATP of the Δ type enzyme of purified T7 RNA polymerase was compared to that of the wild type and F644Y mutation.
In this method, 3′-dATP was added during an in vitro transcription reaction and the synthesis level was determined by comparison with synthesis impairment. This will be described in greater detail. The template employed was pBluescriptII (Stratagene) pretreated with the restriction enzyme ScaI (made by Nippon Gene). The reaction conditions were: 40 mM Tris-HCl, pH 8.0, 25 mM NaCl, 8 mM MgCl2, 2 mM spermidine-(HCl)3, and 5 mM DTT. The concentration of ribonucleotides rATP, rCTP, rGTP, and rUTP was 0.5 mM. A 0.1 mM quantity of Biotin-labeled CTP was added and 3′-dATP was added in ranges of 0.00125 mM, 0.0025 mM, and 0.005 mM. A 25 U quantity of enzymes purified as set forth above were added to 10 μL of this solution and the reaction was conducted for 60 min at 37° C. At the conclusion of the reaction, 1 μL of 10× gel loading buffer (1 mM EDTA, 1% SDS, 50% glycerol, and 0.05% BPB) was added. The entire solution was then subjected to electrophoresis in a 1% modified formamide gel. At the conclusion of electrophoresis, northern hybridization was conducted, the synthesized product was transcribed onto a nylon membrane, and signal detection was conducted based on a chemoluminescent substrate according to a protocol of anti-SA-AP antibody (made by Oriental Yeast Co., diluted 20,000-fold) and CDP-Star™ (made by Roche Co.). A Fluoro S Multiimager (BioRad Co.) and Multianalyst, an attached image analyzing software package, were then employed to determine the level of the signal detected.

3′-dATP [2] = experiment: Test (1): 3′-dATP added during in vitro transcription, amount of RNA synthesized (SYBER Green II gel image); details: 3′-dATP concentration 0.024 mM, wild form of T7 RNA polymerase taken as 1, inverse of RNA synthesis level
Method: as §1
In this method, 3′-dATP was added during an in vitro transcription reaction and the synthesis level was determined by comparison with synthesis impairment. This will be described in greater detail. The template employed was pBluescriptII (Stratagene) pretreated with the restriction enzyme ScaI (made by Nippon Gene). The reaction conditions were: 40 mM Tris-HCl, pH 8.0, 25 mM NaCl, 8 mM MgCl2, 2 mM spermidine-(HCl)3, and 5 mM DTT. The concentration of nucleotides ATP, CTP, GTP, and UTP was 0.5 mM. Of these, ATP was replaced with 3′-dATP (Sigma) in ranges of 0.006 mM, 0.008 mM, 0.012 mM, and 0.024 mM. The above purified enzymes were added to 20 μL of this solution and the reaction was conducted for 30 to 60 min at 37° C. At the conclusion of the reaction, 4 μL of 5× gel loading buffer was added (15% Ficoll, 0.1% BPB, 0.1% XC, 0.5% SDS, and 0.1 M EDTA). The entire solution was then subjected to electrophoresis in a 1% modified agarose gel containing formaldehyde. At the conclusion of electrophoresis, 10,000-fold dilution was conducted with SYBER Green II (made by Molecular Probe Co.) and dying was conducted for 20 to 40 min according to a protocol of addition to the product. A Fluoro S Multiimager (BiORad Co.) was then employed to irradiate ultraviolet radiation and pick up the fluorescent image. Multianalyst, an attached image analyzing software package, was used to determine the amount of RNA that had been synthesized from the image picked up. The various values of the results were compared. An increase in ability to incorporate 3′-dATP should result in a drop in the synthesis level. Accordingly, a comparison was made with a control, and the inverse thereof was employed as indicator of how readily 3′-dATP was incorporated.

[3] = tested on: fluorescent-labeled 3′-deoxynucleotide; experiment: Ability to incorporate fluorescent-labeled 3′-deoxynucleotide, fluorescent signal intensity on ABI 377 XL Sequencer
Method: A comparison was conducted of the ability to incorporate florescent-labeled 3′-deoxynucleotide of Δ-type enzyme of purified T7 RNA polymerase.
This method was conducted in accordance with the method of Sasaki et al. (Sasaki, N., et al. Gene, 222(1): 17-24 (1998)). In greater detail, pBluescriptII DNA was employed as template. A solution obtained by mixing Bodipy(R6G)-3′dATP, Bodipy(FL)-3′dGTP, Bodipy(581/591)-3′dCTP, Bodipy(564/570)-3′dUTP, ATP, GTP, CTP, and UTP in prescribed proportions was employed to conduct reactions differing only with regard to the T7 RNA polymerase employed. The enzymes employed were 100 units of T7 RNA polymerase (wild type) and T7 RNA polymerase F644Y; and 50 units of T7 RNA polymerase F644Y/Δ1. The reaction product was subjected to electrophoresis with an ABI 377 XL Sequencer. The average value of the fluorescent signal intensity was compared for each nucleotide.
Column (2) is a conversion of the value of (1) per unit of enzyme. Numbers shown in parentheses denote values relative to a value of “1” for the signal intensity of wild enzyme. […] Since the ABI 377 XL Sequencer is not a device for quantitative analysis, and operations is conducted on an extremely small amount of samples, large errors are to be expected.

[4] = relative to a value of 1 for the signal intensity of wild enzyme

Molecule | Relative ability to incorporate 3′-dATP (3′-dATP [1]) | Relative ability to incorporate 3′-dATP (3′-dATP [2]) | (1) Average signal intensity U ([3]; Bodipy(564/570)-3′dUTP, 100 units of enzyme (50 units for F644Y/Δ1)) | (1) Average signal intensity C ([3]; Bodipy(581/591)-3′dCTP, 100 units of enzyme (50 units for F644Y/Δ1)) | (1) Average signal intensity G ([3]; Bodipy(FL)-3′dGTP, 100 units of enzyme (50 units for F644Y/Δ1)) | (1) Average signal intensity A ([3]; Bodipy(R6G)-3′dATP, 100 units of enzyme (50 units for F644Y/Δ1)) | (2) Signal intensity per unit of enzyme G ([3]; conversion of (1) per unit of enzyme) | Signal intensity per unit of enzyme A, value in parentheses relative to wild enzyme [3, 4] | Signal intensity per unit of enzyme C, value in parentheses relative to wild enzyme [3, 4] | Signal intensity per unit of enzyme G, value in parentheses relative to wild enzyme [3, 4] | Signal intensity per unit of enzyme U, value in parentheses relative to wild enzyme [3, 4] | Relative ability to incorporate 3′-dATP (3′-dATP [1]; listed as F644Y/Δ3) | Relative ability to incorporate 3′-dATP (3′-dATP [1]; listed as T7 RNA polymerase F644Y/Δ 3)
T7 RNA polymerase (wild type): wild RNA polymerase derived from T7 phage | 1.00 | 1.00 | 120 | 146 | 220 | 67 | 2.2 | (1.0) | (1.0) | (1.0) | (1.0) |  | 
B1 |  |  |  |  |  |  |  |  |  |  |  | 2.00±0.3 and 2.00 | 2.00 ± 0.3
B2 |  | almost the same results |  |  |  |  |  |  |  |  |  |  | 
